This is an account of results in patent US5616716A, “(3-(5-ethoxypyridin)yl)-alkenyl 1 amine compounds” (priority 1996, dated 1997).

Assay [1] deals with CNS nicotinic receptors (thalamic synaptosomes). Put plainly: Determination of ion flux from thalamic synaptosomes (^86 Rb+ efflux; receptor activation). To be noted: for Receptor Activation Emax: percent of Emax for tetramethylammonium. The assay is classed as biochemical, rat. Here is the method: Determination of ion flux from thalamic synaptosomes
Rat brains were dissected and midbrain (thalamus and mesencephalon) removed. The midbrain was then placed into a tube on ice, homogenized, and centrifuged at 2800 rpm for 10 minutes. The supernatant was collected and centrifuged for another 20 minutes at 9650 rpm The resulting pellet was resuspended by trituration in 700 ul ice cold perfusion buffer. Synaptosomes were then loaded with ^86 Rb+ Ion efflux was determined using the methods of Marks et al., J. Pharmacol. Exp. Ther., Vol. 264, pp. 427-436 (1993). Total efflux was determined by subtraction of basal release from release at stimulation (total peak release). The ratio of the peak to baseline (Rp) was calculated for each concentration. A tetramethylammonium control (i.e., a full agonist to the receptor of interest) is used in each assay to compare each agonist's ability to stimulate rubidium efflux to the control. Emax values are reported as a percent of Emax for tetramethylammonium.

Assay [2] deals with dopamine release from striatal synaptosomes. Put plainly: Determination of dopamine release (striatal synaptosomes). The assay is classed as biochemical, rat (Sprague-Dawley). To be noted: rat striatal synaptosomes; for Dopamine Release Emax: percentage of release obtained with (S)-(-)-nicotine. The procedure: Determination of Dopamine Release
Dopamine release was measured by preparing synaptosomes from the striatal area of rat brain obtained from Sprague-Dawley rats generally according to the procedures set forth by Nagy et al. J. Neurochem., Vol. 43, pp. 1114-1123 (1984). Striata from 4 rats were homogenized in 2 ml of 0.32M sucrose buffered with 5 mM HEPES (pH 7.5), using a glass-Teflon tissue grinder. The homogenate was diluted to 5 ml with additional homogenization solution and centrifuged at 1,000 ×g for 10 min. This procedure was repeated on the new pellet and the resulting supernatant was centrifuged at 12,000 ×g for 20 min. A 3 layer discontinuous Percoll gradient consisting of 16 percent, 10 percent and 7.5 percent Percoil in HEPES-buffered sucrose was made with the final pellet dispersed in the top layer. After centrifugation at 15,000 ×g for 20 min., the synaptosomes were recovered above the 16 percent layer with a Pasteur pipette, diluted with 8 ml of perfusion buffer (128 mM NaCl, 2.4 mM KCl, 3.2 mM CaCl2, 1.2 KH2 PO4, 1.2 mM MgSO4, 25 mM HEPES pH 7.4, 10 mM dextrose, 1 mM ascorbate, 0.01 mM pargyline), and centrifuged at 15,000 ×g for 20 min. The new pellet was collected and re-suspended in perfusion buffer. The synaptosome suspension was incubated for 10 min. at 37 ° C. [^3 H]-Dopamine (Amersham, 40-60 Ci/mmol) was added to the suspension to give a final concentration of 0.1 uM, and the suspension was incubated for another 5 min. Using this method, 30 to 90 percent of the dopamine was taken up into the synaptosomes, as determined by scintillation counting following filtration through glass fiber filters soaked with 0.5 percent polyethyleneimine. A continuous perfusion system was used to monitor release following exposure to each ligand. Synaptosomes were loaded onto glass fiber filters (Gelman type A/E). Perfusion buffer was dripped onto the filters (0.2-0.3 ml/min.) and pulled through the filters with a peristaltic pump. Synaptosomes were washed with perfusion buffer for a minimum of 20 min. before addition of the ligand. After the addition of 0.2 ml of a solution containing various concentrations of ligand, the perfusate was collected into scintillation vials at 1 min. intervals and the dopamine released was quantified by scintillation counting. Peaks of radioactivity released above background were summed and the average basal release during that time was subtracted from the total. Release was expressed as a percentage of release obtained with an equal concentration of(S)--(-)--nicotine.

Assay [3] concerns the target T1, ganglionic-type neuronal nicotinic receptors (PC12) (Rattus norvegicus, UniProt P04757+P12392).
T1 construct: Ganglionic effects were established on the rat pheochromocytoma clonal line PC12; endogenous in cells; host or cells: PC12 (rat pheochromocytoma)
Put plainly: cell-based. The note with it: PC12, ^86 Rb^+ efflux, percentage of maximal activation induced by (S)-(-)-nicotine. An excerpt: Determination of Interaction with Ganglia
Ganglionic effects were established on the rat pheochromocytoma clonal line PC12, which is a continuous clonal cell line of neural crest origin derived from a tumor of the rat adrenal medulla expressing ganglionic-typeneuronal nicotinic receptors (see Whiting et al., Nature, Vol. 327, pp. 515-518 (1987); Lukas, J. Pharmacol. Exp. Ther., Vol. 251, pp. 175-182 (1989); Whiting et al., Mol. Brain Res., Vol. 10, pp. 61-70 (1990)). Discussion concerning the heterogeneity of nicotinic receptors subtypes is set forth in Lukas et al. Internatl. Review Neurobiol., Vol. 34, pp. 25-130 (1992). Acetylcholine nicotinic receptors expressed in rat ganglia share a very high degree of homology with their human counterparts. See, Fomasari et al., Neurosci. Lett., Vol. 111, pp. 351-356 (1990) and Chini et al., Proc. Natl. Acad. Sci. USA, Vol. 89, pp. 1572-1576 (1992 ). Both clonal cell lines described above were maintained in proliferative growth phase according to routine protocols (Bencherif et al., Mol. Cell, Neurosci., Vol. 2, pp. 52-65, (1991 ) and Bencheft et al., J. Pharmacol. Exp. Ther., Vol. 257, pp. 946-953 (1991)). Intact cells on dishes were used for functional studies. Routinely, sample aliquots were reserved for determination of protein concentration using the method of Bradford, Anal. Biochem., Vol. 72, pp. 248-254 (1976) with bovine serum albumin as the standard.
Nicotinic acetylcholine receptor (nAChR) function was assayed using ^86 Rb^+ efflux according to a method described by Lukas et al., Anal. Biochem., Vol. 175, pp. 212-218 (1.988). […] The medium was removed and ^86 Rb^+ was quantitated using Cerenkov detection (see Lukas et al., Anal. Biochem., Vol. 175, pp. 212-218 (1988)). Specific ion efflux was determined as the difference in isotope efflux between total and non-specific efflux samples. Dose-response curves were plotted and the concentration resulting in half maximal activation of specific ion flux through nicotinic receptors determined for human muscle and rat ganglionic preparations (EC50).

The next assay addresses nicotinic receptors. Put plainly: Binding of compounds to relevant receptor sites (inhibition of L-[^3 H]nicotine binding, rat brain membranes). The arrangement: species or system rat (Sprague-Dawley). The note with it: inhibition of L-[^3 H]nicotine (10 nM) binding. The procedure: Rats (Sprague-Dawley) were maintained on a 12 hour light/dark cycle and were allowed free access to water and food supplied by Wayne Lab Blox, Madison, Wis. Animals used in the present studies weighed 200 to 250 g. Brain membrane preparations were obtained from brain tissue of either males or females.
Rats were killed by decapitation following anesthesia with 70% CO2. Brains were removed and placed on an ice-cold platform.
The incubation buffer was Krebs-Ringers HEPES containing 200 mM TRIS buffer, pH 7.5. The binding reaction was terminated by filtration of the protein containing bound ligand onto glass fiber filters (Micro Filtration Systems) that had been soaked in buffer containing 0.5 percent polyethyleneimine. Filtration vacuum was -50 to -100 torr. Each filter was washed five times with 3 ml of ice-cold buffer. […] Nonspecific binding was determined by inclusion of 10 uM nonradioactive nicotine in the incubations.
The inhibition of L-[^3 H]nicotine binding by test compounds was determined by including one of eight different concentrations of the test compound in the incubation.

In assay [4] the target is T2, muscle-like nicotinic receptors (TE671/RD) (Homo sapiens, UniProt P02708+P07510+Q07001).
T2 construct: these cells express muscle-like nicotinic receptors; endogenous in cells; host or cells: TE671/RD (human embryonal rhabdomyosarcoma)
T2 sequence (Q07001 22-517): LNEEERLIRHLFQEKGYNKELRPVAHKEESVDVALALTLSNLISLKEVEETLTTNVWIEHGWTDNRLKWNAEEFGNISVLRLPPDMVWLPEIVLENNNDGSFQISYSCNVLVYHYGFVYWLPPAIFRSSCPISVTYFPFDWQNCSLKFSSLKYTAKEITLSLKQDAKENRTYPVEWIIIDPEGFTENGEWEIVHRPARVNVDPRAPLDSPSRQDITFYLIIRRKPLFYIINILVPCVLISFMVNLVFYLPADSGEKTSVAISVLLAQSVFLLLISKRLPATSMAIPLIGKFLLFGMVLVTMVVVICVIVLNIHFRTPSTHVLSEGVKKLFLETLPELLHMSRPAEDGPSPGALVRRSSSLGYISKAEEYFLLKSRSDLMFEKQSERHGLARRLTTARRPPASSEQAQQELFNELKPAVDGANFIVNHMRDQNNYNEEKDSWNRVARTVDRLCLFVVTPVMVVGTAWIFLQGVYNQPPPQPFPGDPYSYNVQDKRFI
T2 sequence (P07510 23-517): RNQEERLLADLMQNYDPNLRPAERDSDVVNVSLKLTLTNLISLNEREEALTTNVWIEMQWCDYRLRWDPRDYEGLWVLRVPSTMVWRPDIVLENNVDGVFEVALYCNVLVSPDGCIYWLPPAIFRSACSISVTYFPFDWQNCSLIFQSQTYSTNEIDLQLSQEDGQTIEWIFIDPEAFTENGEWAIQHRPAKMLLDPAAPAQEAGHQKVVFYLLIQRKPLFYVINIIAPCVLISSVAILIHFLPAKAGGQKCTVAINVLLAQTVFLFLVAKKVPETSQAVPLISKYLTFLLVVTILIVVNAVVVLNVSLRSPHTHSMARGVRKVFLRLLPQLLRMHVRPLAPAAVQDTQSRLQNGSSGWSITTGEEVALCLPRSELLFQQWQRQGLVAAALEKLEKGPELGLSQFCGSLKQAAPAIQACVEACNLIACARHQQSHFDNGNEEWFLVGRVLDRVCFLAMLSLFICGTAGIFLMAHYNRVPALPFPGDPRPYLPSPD
T2 sequence (P11230 24-501, further chain): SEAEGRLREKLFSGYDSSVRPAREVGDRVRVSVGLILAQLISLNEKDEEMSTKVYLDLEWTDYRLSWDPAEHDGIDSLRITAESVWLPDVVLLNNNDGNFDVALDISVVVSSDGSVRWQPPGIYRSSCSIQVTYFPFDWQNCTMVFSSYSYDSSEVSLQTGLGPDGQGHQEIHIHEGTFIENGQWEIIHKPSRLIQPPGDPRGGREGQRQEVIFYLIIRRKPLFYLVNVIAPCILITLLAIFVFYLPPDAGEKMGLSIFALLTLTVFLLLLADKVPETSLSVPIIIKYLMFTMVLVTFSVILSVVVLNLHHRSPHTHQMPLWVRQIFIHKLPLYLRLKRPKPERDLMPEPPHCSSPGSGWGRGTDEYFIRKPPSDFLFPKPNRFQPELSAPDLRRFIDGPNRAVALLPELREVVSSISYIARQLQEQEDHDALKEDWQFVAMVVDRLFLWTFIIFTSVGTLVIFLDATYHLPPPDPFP
T2 sequence (P02708 21-457): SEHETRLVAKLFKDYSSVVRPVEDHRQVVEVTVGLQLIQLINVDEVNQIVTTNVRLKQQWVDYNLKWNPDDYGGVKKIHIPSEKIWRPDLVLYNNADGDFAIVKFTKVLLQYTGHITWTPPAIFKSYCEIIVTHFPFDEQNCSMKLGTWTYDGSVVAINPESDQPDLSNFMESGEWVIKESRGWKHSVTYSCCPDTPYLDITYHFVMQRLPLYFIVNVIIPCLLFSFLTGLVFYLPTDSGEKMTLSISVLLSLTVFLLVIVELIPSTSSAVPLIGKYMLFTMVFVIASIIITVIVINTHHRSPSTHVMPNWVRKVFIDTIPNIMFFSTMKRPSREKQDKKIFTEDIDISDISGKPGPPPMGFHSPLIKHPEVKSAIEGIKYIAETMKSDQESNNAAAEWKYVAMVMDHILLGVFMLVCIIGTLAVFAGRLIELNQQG
Put plainly: cell-based. The note with it: ^86 Rb^+ efflux, read-out: Muscle Effect EC50. An excerpt:
Determination of Interaction with Muscle
Human muscle activation was established on the human clonal line TE671/RD which is derived from an embryonal rhabdomyosarcoma (Stratton et al., Carcinogen, Vol. 10, pp. 899-905 (1989)). As evidenced through pharmacological (Lukas, J. Pharmacol. Exp. Ther., Vol. 251, pp. 175-182 (1989)), electrophysiological (Oswald et al., Neurosci. Lett., Vol. 96, pp. 207-212 (1989)), and molecular biological studies (Luther et al., J. Neurosci., Vol. 9, pp. 1082-1096 (1989)) these cells express muscle-like nicotinic receptors. Nicotinic acetylcholine receptor (nAChR) function was assayed using ^86 Rb^+ efflux according to a method described by Lukas et al., Anal. Biochem., Vol. 175, pp. 212-218 (1988). Dose-response curves were plotted and the concentration resulting in half maximal activation of specific ion flux through nicotinic receptors determined for human muscle and rat ganglionic preparations (EC50).
Nicotinic acetylcholine receptor (nAChR) function was assayed using ^86 Rb^+ efflux according to a method described by Lukas et al., Anal. Biochem., Vol. 175, pp. 212-218 (1.988). […] The medium was removed and ^86 Rb^+ was quantitated using Cerenkov detection (see Lukas et al., Anal. Biochem., Vol. 175, pp. 212-218 (1988)). Specific ion efflux was determined as the difference in isotope efflux between total and non-specific efflux samples. […]

T1 sequence (P04757 26-499): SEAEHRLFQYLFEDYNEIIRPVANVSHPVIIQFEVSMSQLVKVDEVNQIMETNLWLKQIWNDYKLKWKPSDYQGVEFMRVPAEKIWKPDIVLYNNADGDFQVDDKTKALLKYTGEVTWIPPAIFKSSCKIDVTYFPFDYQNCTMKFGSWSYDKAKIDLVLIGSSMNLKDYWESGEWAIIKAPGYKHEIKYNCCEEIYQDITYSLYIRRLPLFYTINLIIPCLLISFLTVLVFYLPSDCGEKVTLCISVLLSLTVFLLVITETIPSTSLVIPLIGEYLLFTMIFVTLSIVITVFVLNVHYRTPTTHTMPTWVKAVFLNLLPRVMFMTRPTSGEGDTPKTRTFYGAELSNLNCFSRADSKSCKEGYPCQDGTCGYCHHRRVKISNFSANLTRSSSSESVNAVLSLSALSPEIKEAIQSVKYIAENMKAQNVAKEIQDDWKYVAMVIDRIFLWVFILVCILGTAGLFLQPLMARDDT
T1 sequence (P12392 21-495): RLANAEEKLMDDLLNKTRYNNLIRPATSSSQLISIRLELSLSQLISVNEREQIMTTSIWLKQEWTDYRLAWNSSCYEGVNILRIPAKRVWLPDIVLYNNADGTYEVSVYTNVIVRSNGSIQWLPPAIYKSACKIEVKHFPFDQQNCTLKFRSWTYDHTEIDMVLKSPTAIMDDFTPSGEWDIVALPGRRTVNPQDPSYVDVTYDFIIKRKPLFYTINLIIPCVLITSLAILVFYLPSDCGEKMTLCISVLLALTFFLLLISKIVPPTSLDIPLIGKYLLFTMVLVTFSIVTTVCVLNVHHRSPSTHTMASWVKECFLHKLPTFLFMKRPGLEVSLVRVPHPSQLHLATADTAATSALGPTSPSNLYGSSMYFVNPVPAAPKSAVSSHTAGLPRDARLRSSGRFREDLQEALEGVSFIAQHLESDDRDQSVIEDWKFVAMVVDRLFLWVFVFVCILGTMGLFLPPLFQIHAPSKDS

Regarding `CNCC/C=C/c1cccnc1` [Sample No. C-2, (E)-metanicotine, reference compound], in assay [1], the EC50 (in general, the midpoint of the concentration-response curve) amounted to 732 nM and the “Receptor Activation Emax” value was 79%. Besides, in assay [2], the response was half-maximal at 1160 nM (EC50) and the “Dopamine Release Emax” value is recorded as 81%.
With `CNCC/C=C/c1cncc(OC)c1` [Sample No. 3, (E)-N-methyl-4-[3-(5-methoxypyridin)yl]-3-buten-1-amine], in assay [1], the EC50 was determined as 470 nM and the “Receptor Activation Emax” value was 62%. Also, the “Ganglion Effect Emax” value in assay [3] amounted to 0%. In addition, in assay [2], the EC50 was 2340 nM and the “Dopamine Release Emax” value stood at 106%. The Ki (in general, the dissociation constant of the complex between target and ligand, obtained from inhibition or displacement) on nicotinic receptors was found to be 7 nM.
On to `CNC(C)C/C=C/c1cccnc1` (centres unmarked) [Sample No. 2, (E)-N-methyl-5-(3-pyridinyl)-4-penten-2-amine], for which, in assay [1], it took 1700 nM to reach a half-maximal effect (EC50) and the “Receptor Activation Emax” value stood at 35%. In addition, in assay [3], the “Ganglion Effect Emax” value is listed as 6%. Also, in assay [2], the EC50 stood at 21400 nM and the “Dopamine Release Emax” value is 182%. In addition, at nicotinic receptors, the Ki stood at 82 nM.
For the compound `CCOc1cncc(/C=C/CCNC)c1` [Sample No. 1, (E)-N-methyl-4-[3-(5-ethoxypyridin)yl]-3-buten-1-amine], in assay [1], the EC50 came out at 269 nM and the “Receptor Activation Emax” value amounted to 67%. For the same compound, the Emax (usually the size of the effect at its maximum, as opposed to the concentration needed) in assay [3] (PC-12, read-out: Ganglion Effect Emax) amounted to 0%. In assay [2], the response was half-maximal at 287 nM (EC50) and the “Dopamine Release Emax” value was 124%. In addition, the inhibition constant (Ki) at nicotinic receptors was 9 nM.
For the compound `CN1CCC[C@H]1c1cccnc1` [Sample No. C-1, (S)--(-)--nicotine, reference compound], the “Receptor Activation Emax” value in assay [1] is on record as 87%. Moreover, the figures for the EC50 in assay [2] and in assay [4] were 100 nM and 80000 nM, respectively. In assay [2], the “Dopamine Release Emax” value stood at 100%.
